The values below come from EP0227100A2, “N-Vinylimidazoles and -triazoles and pharmaceutical compositions containing them” (SHIONOGI SEIYAKU KABUSHIKI KAISHA, priority 1985, dated 1987).

Format in all cases: cell-based
Data set [1] concerns Trichophyton asteroides. As to the kind of experiment: Minimum inhibitory concentration against Trichophyton asteroides, test tube experiment in Sabouraud's dextrose broth. From the text:
In the test, Sabouraud's dextrose broth* was used.

Data set [2] has as its system C. albicans KE-2. As to the kind of experiment: Inhibition test against pseudomycelium formation of Candida albicans. As to conditions: minimum effective concentration preventing typical pseudomycelium formation; EMEM with 20 % calf serum, 1 x 10⁶ yeast cells per milliliter, 18 hr. at 37 °C; read-out: Inhibitory Concentration of Pseudomyselium Formation. The procedure:
Inhibition test against pseudomycelium formation of Candida albicans.
C. albicans KE-2 was inoculated to EMEM (Nissan 2 made by Nissui Seiyaku, Ltd.) supplemented with 20 % calf serum so that its final inoculum might be 1 x 10⁶ yeast cells per milliliter. The test compounds were added thereon in two fold dilution series. After inocubation for 18 hr. at 37 °C, the fungal growth in each drug concentration was smeared and fixed on a slide glass, and its morphological feature on the presence or absence of the pseudomycelium formation was examined by a microscope following Giemsa staining. Minimum effective concentration was defined as the lowest concentration of the compound which prevented typical pseudomycelium formation.

Data set [3] deals with influenza virus Ao/WSN (H₁N₁). As to the kind of experiment: Antiviral activity: Plaque Reduction Test in MDCK cells. As to conditions: unidentified influenza virus, read-out: ED 50 (1) Plaque Reduction Test. A general note: Plaque reduction counts the foci of infection that form in a cell layer.
The test system of data set [4] is influenza virus Ao/WSN (H₁N₁). As to the kind of experiment: microbe, parasite or virus in culture. As to conditions: unidentified influenza virus, MDCK, 24 h, read-out: ED 50 (2) Virus Yield Test.
The nature of data set [5]: in vitro. As to conditions: dog, mdck. The method, then: (3) Colony Formation Test The action to the host cell was examined by the following method: MDCK cells (coming from dog's kidney) were adjusted to a concentration of 200 cells/ml with a growth medium and poured into each pore of Lindbrow's 12 pores microplate 1 ml by 1 ml. The test compound diluted with a growth medium was added to the pores 1 ml by 1 ml, and the whole was cultivated in a cultivating apparatus filled with 5% carbon dioxide gas at 37°C for 7 days. After dyeing with 1% crystal violet dyeing solution for 15 min, the number of cell colonies was counted. The concentration of the test compound which inhibited 50% the growth of cell colonies in comparison with obtained without using the test compound was evaluated as TD₅₀ value for judging the toxicity against cell.

Converted amounts (≈) assume the structure as drawn.

The term MIC denotes the lowest concentration that inhibits growth of the organism. Read a high MIC as a less susceptible organism. In data set [1], `C=C(c1cc(-c2ccccc2)ccc1OC)n1ccnc1` [Compound I-49] came in with an MIC of 0.1 µg/mL (≈ 0.362 µM).

For the compound `CCC(CC)=C(c1cc(Cl)ccc1OC)n1ccnc1` [Compound I-50], the minimal effective concentration in data set [2] was 0.31 µg/mL. The compound also displayed an MIC in data set [1] of 0.1 µg/mL (≈ 0.344 µM).

In turn, `Oc1ccc(Cl)cc1/C(=C/c1ccc(Cl)cc1Cl)n1ccnc1` [Compound I-9] displayed an MIC in data set [1] of 0.1 µg/mL (≈ 0.273 µM).

Broadly, the CC50 is the concentration giving 50% cytotoxicity. A higher CC50 goes with lower toxicity to the cells. As for `COc1ccc(Cl)cc1C(=C1CCCCC1)n1cncn1` [Compound I-57], the EC50 was 48 µg/mL (≈ 158 µM) in data set [3] and 30 µg/mL (≈ 98.8 µM) in data set [4]. In addition, in data set [5], it took 70 µg/mL (≈ 230 µM) to reach half-maximal cytotoxicity (CC50 at 168 h).

In data set [1], `Oc1ccc(Cl)cc1C(=C1CCCCC1)n1ccnc1` [Compound I-22] came in with an MIC of 0.1 µg/mL (≈ 0.346 µM).

Consider `COc1ccc(Cl)cc1C(=C1CCCCC1)n1ccnc1` [Compound I-56], for which the MIC in data set [1] was determined as 0.1 µg/mL (≈ 0.33 µM).

As to `CC(C)Oc1ccc(Cl)cc1C(=C1CCCCC1)n1cncn1` [Compound I-58], the minimal effective concentration in data set [2] was 0.16 µg/mL.

For the compound `CC(C)Oc1ccc(Cl)cc1C(=C1CCCCC1)n1ccnc1` [Compound I-66], the minimal effective concentration in data set [2] was 0.08 µg/mL. In data set [1], the MIC came to 0.1 µg/mL (≈ 0.302 µM).

Regarding `CCC(CC)=C(c1cc(Cl)ccc1O)n1cncn1` [Compound I-6], in data set [1], the MIC came out at 0.1 µg/mL (≈ 0.36 µM).

As to `CCC(CC)=C(c1cc(Cl)ccc1O)n1ccnc1` [Compound I-5], the minimal effective concentration in data set [2] was found to be 0.63 µg/mL. In data set [1], this compound gave an MIC of 0.1 µg/mL (≈ 0.361 µM).

As to `CCCCOc1ccc(Cl)cc1C(=C(CC)CC)n1ccnc1` [Compound I-51], the minimal effective concentration in data set [2] was determined as 0.31 µg/mL.

Regarding `C=C(c1cc(Cl)ccc1OCC(=O)c1ccc(Cl)cc1)n1ccnc1` [Compound I-107], the MIC in data set [1] was 0.1 µg/mL (≈ 0.268 µM).

`C=C(c1c(O)cccc1OCCCC)n1ccnc1` [Compound I-4]: the MIC in data set [1] was 0.1 µg/mL (≈ 0.387 µM).

`CCC(CC)=C(c1cc(Cl)ccc1OC(C)C)n1ccnc1` [Compound I-52]: in data set [2], the minimal effective concentration was 0.08 µg/mL. Further, the MIC in data set [1] amounted to 0.1 µg/mL (≈ 0.314 µM).
